The record followed here is US4912036A, “Rapid differentiation of bacteria using cyclic polypeptide antibiotics” (Eastman Kodak Company, priority 1986, dated 1990).

The test system of experiment [1] is S. aureus. In words: Inhibition of RIND IX reduction by various cyclic polypeptide antibiotics. The experiment is classed as cell-based, Staphylococcus aureus. Conditions: for Corrected % Inhibition: 635 nm. The procedure:
The following materials were used in this example: stock solutions of RIND IX compound dispersion prepared as described above, glucose (10% in water), trimethyl-1,4-benzoquinone ETA (1.5 mg/ml methanol), and the antibiotics (1 mg/ml in dimethylsulfoxide). S. aureus cells were grown as described above. The final cell concentration in the assay mixture was about 4.3×10^8 cells/ml.
Test solutions were prepared by adding in the order: 1.2 ml of HEPES buffer, 50 μl glucose solution, 1.5 ml of RIND IX dispersion, 100 μl of antibiotic solution, 100 μl of cell suspension and 25 μl of ETA solution. Control solutions were prepared as described in Examples 2 and 3. Optical density readings (OD) were measured at 635 nm at 0 minutes and after incubation at 37° C. for 30 minutes for test and control solutions, and the change in density (ΔOD) was determined. Table VI below lists the results, expressed as corrected percent inhibition of the reduction of the RIND compound. The corrected percent inhibition is calculated by dividing the difference between the ΔOD obtained from the Cell Control without antibiotic and the ΔOD of the test solution, by ΔOD of the Cell Control without antibiotic. All readings were corrected by subtracting readings of the appropriate background Controls.
Solutions containing 2.9 ml HEPES, 50 μl of the antibiotic solution and 100 μl cell solution were incubated at 37° C. for 30 minutes, centrifuged for 10 minutes and decanted. The resulting pellet was then treated with 1.4 ml HEPES, 50 μl glucose solution, 1.5 ml RIND IX dispersion and 25 μl ETA solution, mixed well and the densities recorded as described above in Method 1. The corrected percent inhibition data was calculated as described in Method 1 above.

For experiment [2], the system named is P. vulgaris. In words: RIND VII reduction solution assay, ΔOD 635 nm. The format is cell-based, Proteus vulgaris. Conditions: P. vulgaris 7 × 10^7 /ml, antibiotic 10^-4 molar. How it is done: (§1) Bacterial suspensions were prepared by growing the cells in BHT broth to stationary phase overnight at 37° C. P. auruginosa was grown with agitation. About 40 ml of each overnight culture was centrifuged, decanted and washed once with 0.05 molar potassium phosphate buffer or 0.05 molar N-2-hydroxy-ethylpiperazine-N'-2-ethanesulfonic acid (HEPES) buffer, pH 7.8, and resuspended in buffer.
(§2) TERGITOL 7 anionic surfactant was used to differentiate viable bacteria according to the prior art method. Various concentrations of TERGITOL 7 surfactant were mixed with a 10% glucose solution (50 μl), 3-(4,5-dimethyl-2-thiazolyl)-2,5-diphenyl-2N-tetrazolium bromide (MTT) (25 μl at 5 mg/ml methanol) or a RIND VII dispersion (1.5 ml) and phenazine methosulfate ETA (25 μl at 3 mg/ml methanol). The volume of each test solution was brought to 3 ml with potassium phosphate buffer. A cell suspension (100 μl at about 10^8 cells/ml) was then added. The solutions were incubated at 37° C. for 15 and 30 minutes in the presence of either E. coli, a gram(-) bacterium, or S. aureus, a gram(+) bacterium. The amount of dye formed was then determined visually, and graded as follows: "O" indicates no dye formation, +/- indicates faint dye formation, 1+ indicates light dye formation, 2+ indicates moderate dye formation, 3+ indicates strong dye formation, and 4+ indicates very strong dye formation. […]

Experiment [3] has as its system K. pneumoniae. In words: MTT reduction solution assay, ΔOD 540 nm. The experiment is classed as cell-based, Klebsiella pneumoniae. Particulars: K. pneumoniae (-) 5×10^7, gramicidin S 0.00625 mg/ml, 37° C. The procedure:
(§3) These examples illustrate the differentiation of bacteria using a tetrazolium salt and phenolic dye as the reducible compounds and two cyclic polypeptide antibiotics according to the present invention. The tetrazolium salt was 3-(4,5-dimethyl-2-thiazolyl) -2,5-diphenyl-2H-tetrazolium bromide (MTT) which forms a colored formazan dye when reduced. The phenolic dye was 2,6-dichloroindophenol (DCIP) which forms a colorless species when reduced.
(§4) Solutions of the reducible compounds were prepared with the following: HEPES buffer (3 ml, 0.05 molar, pH 7.5), TRITON X-100 nonionic surfactant (1% concentration), glucose (50 μl of 10% in water), tryptose (50 μl of a 10% solution in water), MTT (25 μl of 5 mg/ml methanol) or DCIP (25 μl of 3 mg/ml methanol) and phenazine methosultate ETA (25 μl of 3 mg/ml methanol).
(§5) Test solutions were prepared from the following: reducible compound solution from above (200 μl), 50 μl of either gramicidin S solution (6 mg/ml methanol and 9 ml of buffer) or tyrocidin solution (100 mg/ml methanol and 8 ml of buffer) and 50 μl of cell suspension. […] The change in optical density (ΔOD) was determined after 30 minutes at 37° C. at 540 nm for the MTT assay and at 620 nm for the DCIP assay using a commercially available spectrophotometer.

The test system of experiment [4] is S. aureus. In words: RIND VII reduction solution assay, ΔOD 635 nm. The format is cell-based, Staphylococcus aureus. Particulars: S. aureus 7 × 10^7 /ml, antibiotic 10^-4 molar. How it is done:
as §1, §2

For experiment [5], the system named is S. faecalis. In words: DCIP reduction solution assay, ΔOD 620 nm. The format is cell-based, Streptococcus faecalis. Particulars: S. faecalis (+) 5×10^7, gramicidin S 0.00625 mg/ml, 37° C. The procedure:
as §3, §4, §5

Take gramicidin S: in experiment [1] (Methods 1 and 2), the “inhibition of the ability of S. aureus to reduce the RIND compound, in words” value was “inhibits the ability of S. aureus, a gram-positive bacterium, to reduce the RIND compound”. The “Corrected % Inhibition” value amounted to 95.6% in experiment [1] (Test Method 1 (antibiotic in the test solution), S. aureus about 4.3×10^8 cells/ml, 100 μl of 1 mg/ml antibiotic solution, 30 minutes at 37° C.) and 80.0% in experiment [1] (Test Method 2 (cells preincubated with 50 μl antibiotic solution 30 minutes, centrifuged, pellet assayed), S. aureus). The “Corrected ΔOD (15 Minutes)” value in experiment [2] is given as over 2.0; in experiment [4] it was 0.107. In addition, in experiment [3], the “ΔOD, 540 nm after 30 Minutes” value came to 1.207. For the same substance, the “ΔOD, 620 nm after 30 Minutes” value in experiment [5] came to 0.066.
